Structures can show the parent of a compound that is named as a salt. Where two headings read alike, the source gives them in different places.

One compound from patent US7601717B2, “Pterin analogs” (BioMarin Pharmaceutical Inc., priority 2008, dated 2009) can be followed below.

One series deals with eNOS (Homo sapiens, UniProt P29474). Briefly: Cell-free eNOS activity assay reconstituted from purified components. To be noted: 1, 10, 100 μM, 90 minutes at 37° C., nitrite by DAN fluorescence. Format: biochemical. As to the method:
Also tested was the effect of BH4 analogs compared to free BH4 on stimulation of eNOS activity in a cell-free assay system reconstituted from purified components. 90 μL of reaction mixture (25 mM Tris-HCL, pH7.4, 1 μM FAD, 1 μM FMN, 100 μM L-Arginine, 2.5 mM CaCl2, 1 mM NADPH, 0.04 mg/ml Calmodulin) was mixed with 5 μl of eNOS (15 units/ml) and 5 μl of BH4 or BH4 analogs (1, 10, 100 μM), followed by incubation in a 37° C. water bath for 90 minutes. Then 100 μl of water and 20 μl of the nitrite fluorescent probe DAN (2,3-diaminonaphthalene, 316 μM) were added to each reaction and incubated at room temperature for 10 minutes. The dye DAN reacts with nitrite to yield the fluorescent product naphthotriazole. The reaction was then stopped by adding 10 μl of NaOH (2.8 M), and the fluorescence of the samples was read using excitation frequency 375 nm and emission frequency 415 nm.

Series [1] is described as follows: HPLC with ECD and fluorescence detection of biopterins in plasma of dosed monkeys. Format: in vivo, cynomolgus monkeys. To be noted: plasma 2 hours post-administration, 2% MeOH mobile phase, FIG. 16. Here is the method: An HPLC method using Electrochemical Detection (ECD) and Fluorescence (FL) detection is advantageous as it allows for the measurement of each of the discrete biopterin compounds (BH4, BH2 and B) as well as analog, such as prodrug, forms (e.g., Val-BH4, Val-BH2, and Val-B).
The concentrations of different biopterins (BH4, BH2 and B) and Val-biopterins are determined by initially using reverse phase HPLC for separation, followed by ECD and FL detection. BH4 and Val-BH4 are measured using ECD in which BH4 and Val-BH4 are oxidized by electrode 1 to quinonoid dihydrobiopterin forms (qBH2 or Val-qBH2, respectively), a short-lived dihydrobiopterin intermediate, and then reduced back to BH4 or Val-BH4 at electrode 2. The detector then uses the current generated by this reduction reaction to determine the concentration of BH4 or Val-BH4, respectively. BH2, Val-BH2, B and Val-B are measured by fluorescence detection. […] This is desirable because BH2 is not fluorescently active or easily measured and must be converted to biopterin, which is easily measured using fluorescence. […] In one embodiment, the biopterin analogs, such as valine biopterin derivatives, are measured using a 10% MeOH-containing mobile phase whereas the biopterins are measured using a 2% MeOH-containing mobile phase.
The compound of Example 5 can be detected in buffer and by extraction using this assay. […]

Series [2] can be described thus: Pharmacokinetics and bioavailability, single intravenous or oral doses, partial Latin square crossover. The conditions noted are these: for bioavailability: male, cynomolgus monkey, plasma, po; for Absolute Bioavailability of the BH4 Analog: dihydrochloride; for Val-BH4/(BH4 + BH2 + B), analog remaining in systemic circulation / Val-BH4/BH4, analog remaining in systemic circulation: determined from AUC0-t; for Val-BH4/total biopterin, analog remaining in systemic circulation: from AUC0-t, total biopterin adjusted to BH4 analog. Format: in vivo, male cynomolgus monkeys. As to the method: This study was to determine the pharmacokinetics and relative bioavailability of BH4 when given as parent BH4 or an analog of BH4 to male cynomolgus monkeys as single intravenous or oral doses in a partial Latin square crossover design.
Six, male, non-naïve cynomolgus monkeys were fasted overnight prior to dosing through approximately 4 hours postdose. Individual doses were calculated based on body weights recorded on each day of dose administration. Five experimental groups of monkeys were evaluated using a partial Latin square crossover design: Group 1-2 mg/kg BH4 by IV; Group 2-40 mg/kg BH4 by oral gavage; Group 3-2 mg/kg BH4 analog by IV; Group 4-5 mg/kg BH4 analog by oral gavage; Group 5-20 mg/kg BH4 analog by oral gavage. The doses of BH4 analog were prepared as mg/kg equivalents of BH4 (calculated using BH4 and BH4 analog 2HCl molecular weights). The partial Latin square crossover design was used to minimize dose sequence effect on interanimal variability for statistical purposes. The monkeys received their respective dose of BH4 intravenously (2 mL/kg, dissolved in 100 μM ascorbic acid and 5% mannitol in sterile water for injection, SWFI), Example 5 intravenously (2 mL/kg, dissolved in 100 μM ascorbic acid and 5% mannitol in citrate buffer, pH 3) or BH4 or Example 5 by oral gavage (4 mL/kg, dissolved in 100 μM ascorbic acid in SWFI). Prior to use, all intravenous dose formulations were filtered into the final dosing container using a 0.22-micron syringe filter (Millex GS or GV; Millipore).
For intravenous administration, blood (approximately 1 mL) was collected from each animal predose and at 0.083, 0.25, 0.5, 1, 2, 3, 4, 6, 8, 12, 18, and 24 hours postdose. For oral administration, blood (approximately 1 mL) was collected from each animal predose and at 0.25, 0.5, 1, 2, 3, 4, 6, 8, 12, 18, and 24 hours postdose. Blood was collected into tubes containing K2-EDTA anticoagulant, which was maintained in chilled condition, and centrifuged to obtain plasma. Centrifugation began within 30 minutes of collection. Three, 100-μL aliquots of each plasma sample were promptly transferred following centrifugation into individual tubes containing 0.1% (w/v) dithioerythritol (DTE) for storage. Once the plasma aliquot was added, each tube was vortexed briefly to mix then immediately placed on dry ice.

What is called bioavailability is the share of a dose that reaches the circulation, judged against a reference dose that is usually intravenous. For `CC(C)[C@H](N)C(=O)O[C@@H](C)[C@H](O)[C@H]1CNc2nc(N)[nH]c(=O)c2N1` [Example 5, 2-Amino-3-methyl-butyric acid 2-(2-amino-4-oxo-3,4,5,6,7,8-hexahydro-pteridin-6-yl)-2-hydroxy-1-methyl-ethyl ester dihydrochloride], the “potentiation of eNOS activity” value on eNOS is on record as “did not significantly potentiate eNOS activity”. Further, in series [1], the “height of the BH4 peak compared with monkeys administered BH4” value was “several fold higher”. The bioavailability was 36% in series [2] (5 mg/kg, oral 5 mg/kg (BH4 equivalents), n=6, read-out: Absolute Bioavailability of the BH4 Analog); 33% in series [2] (20 mg/kg, oral 20 mg/kg (BH4 equivalents), n=6, read-out: Absolute Bioavailability of the BH4 Analog); 33 to 36% in series [2] (20 mg/kg, oral 5 and 20 mg/kg, read-out: absolute bioavailability of Val-BH4 present in plasma). Also, the “Absolute Bioavailability of the BH4 Analog” value in series [2] (oral 5 mg/kg (BH4 equivalents), n=6, 5 mg/kg) is given as 36.2 (26.3) %; in series [2] (oral 20 mg/kg (BH4 equivalents), n=6, 20 mg/kg) it was 33.2 (29.2) %. For the same compound, the “absorption and distribution of the analog in plasma” value in series [2] (oral 5 mg/kg, FIG. 10) was “absorbed quickly and was rapidly distributed by 4 hr”. The “Val-BH4/(BH4 + BH2 + B), analog remaining in systemic circulation” value in series [2] (oral 5 mg/kg, n=6) is given as 36.4 (16.0) %; in series [2] (oral 20 mg/kg, n=6), 51.6 (11.6) %. Further, the “Val-BH4/BH4, analog remaining in systemic circulation” value in series [2] (oral 5 mg/kg, n=6) is on record as 56.3 (25.2) %; in series [2] (oral 20 mg/kg, n=6), 81.0 (18.1) %. For the same compound, the “Val-BH4/total biopterin, analog remaining in systemic circulation” value in series [2] (oral 5 mg/kg, n=6) is 23.5 (5.6) %; in series [2] (oral 20 mg/kg, n=6), 40.7 (11.1) %. Also, the “percent of Val-BH4 remaining in systemic circulation” value in series [2] (oral 5 and 20 mg/kg, based on total biopterin adjusted to Val-BH4) is given as “greater than 23.5±5.6%”.
